Earlier results as cited in PMC9112550, “Optimization of the antimicrobial peptide Bac7 by deep mutational scanning” (BMC Biology, 2022).

Test system: Salmonella typhimurium
Conditions: 30 mg kg^−1, mice infected with Salmonella typhimurium intraperitoneally
Text: Lastly, it is hard to judge if the activity increase of Bac7PS compared to Bac7_1-23 measured in vitro can be translated to in vivo experiments. […] In our study, all untreated mice already ...

In the case of “Bac7_1-35: Bac7_1-35 (35 amino acid long) (RRIRPRPPRLPRPRPRPLPFPRPGPRPIPRPLPFP; Bactenecin-7; UniProt P19661 131-165, looked up, fragment)”, the efficacy is listed as 36% and the mean survival (untreated control 10 days) is listed as 24.5 days.
